Laboratory results from PubChem BioAssay AID468 (The Scripps Research Institute Molecular Screening Center, 2006).
The source made the active and inactive calls. How the calls were made is not given here.

Target: Sphingosine 1-phosphate receptor 1 (Homo sapiens) (UniProt P21453)
Test: direct activation of human S1P1 – cell-based, agonist mode, 60K MLSMR set, dose response (AID 468)
Conditions: S1P1 agonist cell-based assay

Sphingosine 1-phosphate receptor 1 (Homo sapiens), sequence (P21453 whole entry, looked up): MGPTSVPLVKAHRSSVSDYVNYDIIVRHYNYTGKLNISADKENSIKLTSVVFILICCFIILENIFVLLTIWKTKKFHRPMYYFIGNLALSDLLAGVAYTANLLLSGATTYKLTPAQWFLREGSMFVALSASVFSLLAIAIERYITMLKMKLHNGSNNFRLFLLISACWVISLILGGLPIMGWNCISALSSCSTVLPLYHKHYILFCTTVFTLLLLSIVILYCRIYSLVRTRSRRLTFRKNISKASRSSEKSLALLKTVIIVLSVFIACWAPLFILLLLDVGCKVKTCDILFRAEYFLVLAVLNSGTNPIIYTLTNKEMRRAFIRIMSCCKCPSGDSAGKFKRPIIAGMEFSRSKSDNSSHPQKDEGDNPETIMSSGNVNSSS

Row | SMILES | EC50
1 | Cc1[nH]nc2c1C1(C(=O)N(Cc3ccc(Cl)cc3)c3ccccc31)C(C#N)=C(N)O2 (stereo not drawn) | inactive
2 | CCC(=NCc1ccc2c(c1)OCO2)c1c(O)n(C2CCCCC2)c(=O)[nH]c1=O | 6.81 µM
3 | COc1ccc(/C(O)=C2/C(=O)C(=O)N(CC3CCCO3)C2c2cccc(OC)c2)cc1 (stereo not drawn) | > 95.1 µM (inactive)
4 | O=C1C2C3C=CC(CO)(O3)C2C(=O)N1c1ccccc1-c1ccccc1 (stereo not drawn) | 5.47 µM
5 | CCC(=NCCOc1ccc(Cl)cc1)c1c(O)n(C)c(=O)n(C)c1=O | 5.04 µM
6 | CCOc1ccc(C(C)=O)cc1N1C(=O)C2C3C=CC(O3)C2C1=O (stereo not drawn) | inactive
7 | CC1(C)CC(=O)C(C=Nc2ccc3[nH]ncc3c2)=C(O)C1 | 5.07 µM
8 | C/C(N)=C(/C#N)C(=O)CSc1nc2cc(Cl)ccc2s1 | inactive
9 | COc1ccc(N2C(=O)CC(Sc3ncn[nH]3)C2=O)c(OC)c1 (stereo not drawn) | inactive
10 | CC1=C(C(=O)OCc2ccc3c(c2)OCO3)C(c2ccc(F)cc2)NC(=O)N1 (stereo not drawn) | 0.437 µM
11 | CCOC(=O)c1cccc2c1-c1ccccc1/C2=N/O | inactive
12 | CC1=C(C(=O)OCc2ccc3c(c2)OCO3)C(c2ccccc2)NC(=O)N1 (stereo not drawn) | 1.84 µM
13 | C/C(N)=C(/C#N)C(=O)CSc1nnc(SCc2ccc(Cl)cc2)s1 | 8.95 µM
14 | CCCCc1ccc(C2C(C#N)=C(N)SC(N)=C2C#N)s1 | inactive
15 | COC(=O)CC1SC(=O)NC1=Nc1ccccc1 (stereo not drawn) | > 95 µM (inactive)
16 | CC(=O)Oc1ccc(N2C(=O)C3C(C2=O)C2(C)C=CC3(C)O2)cc1 (stereo not drawn) | inactive
17 | CCC(=NC(C)c1ccccc1)c1c(O)n(C)c(=O)n(C)c1=O (stereo not drawn) | inactive
18 | COc1ccc(/C=N/O)cc1COc1ccc(NC(C)=O)cc1 | > 95 µM (inactive)
